From patent publication US9567347B2, “Use of small molecule inhibitors targeting the interaction between RAC GTPase and p67(phox)” (CHILDREN'S HOSPITAL MEDICAL CENTER, priority 2012, dated 2017)
Entries after “also recorded” stand apart in the source; their conditions may differ.

Tests used:
[1] = target: T1, p67^phox binding to Rac1V12 (Homo sapiens, UniProt P19878); test: competition binding of p67phox with Rac1V12 by microscale thermophoresis; details: 5 μM, 15 min prior to titration of Rac1V12
T1 construct: using the pET30-HIS p67(1-212) plasmid; His; made in house; host or cells: E. coli BL21(DE3) for p67phox
T1 sequence (P19878 1-212): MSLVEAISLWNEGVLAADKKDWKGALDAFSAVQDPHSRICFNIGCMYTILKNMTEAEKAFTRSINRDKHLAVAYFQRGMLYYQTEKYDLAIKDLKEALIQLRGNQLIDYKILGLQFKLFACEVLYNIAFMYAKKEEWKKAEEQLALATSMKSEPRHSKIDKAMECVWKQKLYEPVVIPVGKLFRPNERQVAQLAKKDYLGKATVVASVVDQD
Method: (§1) Proteins were labeled for microscale thermophoresis using the Monolith NT Protein Labeling Kit Red (Nano Temper Technologies) as recommended by the manufacturer. Binding reactions were carried out using the Monolith NT. 115 (Nano Temper Technologies). Binding data was analyzed using Graphpad Prizm to estimate Kd values. The arbitrary fluorescence value from the thermophoresis plots for the smallest compound titration was subtracted from every other data point (Delta depletion) prior to normalization to a Vmax of 100. In thermophoresis plots where there was no binding, a curve could not be fit and therefore no Vmax could be assigned. In these instances the highest delta depletion value was set to 100 and all data were normalized accordingly.
Next, to perform a competition binding, p67^phox protein was first incubated with either 5 μM Phox-I1 or an equal volume of vehicle control for 15 min prior to titration of purified Rac1V12 protein. […] Thus, Phox-I1 binding to p67^phox is specific and not due to nonspecific effects, such as aggregation.

[2] = target: T2, Rac1V12 protein (Homo sapiens, UniProt P63000, G12V); test: microscale thermophoresis binding to Rac1V12; details: various concentrations
T2 construct: GST; made in house
Method: The p67^phox protein was expressed in BL21(DE3) bacteria (Stratagene) using the pET30-HIS p67(1-212) plasmid. Protein was purified using the QIAexpress Ni-NTA kit (Qiagen) or the GST Bind Resin Chromatography Kit (Novagen) for RacV12 and RacWT proteins. Mutagenesis was carried out using the Quick Change Lightening Site Directed Mutagenesis Kit (Stratagene).
as §1
Next, to perform a competition binding, p67^phox protein was first incubated with either 5 μM Phox-I1 or an equal volume of vehicle control for 15 min prior to titration of purified Rac1V12 protein. […]

[3] = system: primary murine neutrophils; test: H2-DCFDA FACS ROS production assay in primary murine neutrophils; type: cell-based, mouse; details: 10 μM and 20 μM
Method: HL-60 cells were propagated in RPMI 1640 medium containing 10% heat inactivated fetal bovine serum, 2 mM L-glutamine, 100 U/mL penicillin/streptomycin at 37° C. in air containing 5% CO2. For differentiation, HL-60 cells were cultured in 1.3% dimethyl sulfoxide (DMSO) as previously described (Servant, G., et al. (1999) Mol Biol Cell 10, 1163-1178, hereby incorporated by reference in its entirety). Primary murine neutrophils were isolated from C57Bl/6 mouse bone marrow according to a published protocol (Filippi et al., (2004) Nat Immunol 5, 744-751, hereby incorporated by reference in its entirety) using a discontinuous Percoll (Pharmacia) gradient and were utilized immediately in experiments. […]
Cells (5×10^5) were harvested and processed for Annexin V/7AAD staining according to manufacturer's protocol (Becton Dickinson). Flow cytometry data were acquired on a FACS Canto bench-top flow cytometer (Becton Dickinson) and the cell cycle distributions were determined by […] using Flo-Jo software (Bosco et al (2010) Blood 115, 3320-3328, hereby incorporated by reference in its entirety). […] Cells were then stimulated with 10 μM fMLP (Sigma), 1 mM CaCl2, and 1.5 mM MgCl2 for 15 minutes prior to wash and FACS analysis for mean fluorescence intensity. […]

[4] = system: glucose oxidase-produced ROS; test: luminol chemiluminescence assay of glucose oxidase-generated ROS; type: cell-based, human
Method: (§2) Human neutrophils (2×10^5) were stimulated in HBSS supplemented with 0.1% BSA, 1 mM Ca2+, 1 mM Mg2+ and with fMLP (10 μM), PMA (300 nM) or glucose oxidase (200 mU/ml) for 30 min in the presence of 10 μM [8-amino-5-chloro-7-phenylpyrido[3,4-d]pyridazine-1,4(2H,3H)dione] (L012).
(§3) Chemiluminescence was measured using GloMax®-96 Microplate Luminometer (Promega) (Tarpey et al., (2004) Am J Physiol Regul Integr Comp Physiol 286: R431-R444, hereby incorporated by reference in its entirety). The generation of […] by the xanthine/xanthine oxidase was performed in PBS supplemented with xanthine oxidase (0.004 U), HRP (0.005 U·mL^−1) and L012, following the protocol described in Wind et al., (2010) Br J Pharmacol. 161, 885-898, hereby incorporated by reference in its entirety. The reaction was started by the addition of xanthine (0.5 mM).

[5] = system: PMA-induced ROS production in human neutrophils; test: luminol chemiluminescence assay of PMA induced ROS production; type: cell-based
Method: as §2, §3

COc1ccc2c(c1)C1C=C(c3ccccc3)NN1C(c1cccc([N+](=O)[O-])c1)O2 (centres unmarked) [Phox-I1]
competition with Rac1V12 for p67^phox [1]: disruption of p67^phox binding to Rac1V12 | binding to Rac1V12 [2]: unable to bind; also recorded: no detectable binding | inhibition of fMLP-stimulated ROS production [3]: able to inhibit ROS production nearly as well as DPI at 100 μM concentration | effect on glucose oxidase-produced ROS [4]: did not affect | effect on PMA-induced ROS production [5]: did not affect
